PubChem BioAssay AID248 (DTP/NCI, 2004)
Where “and” joins values, the source holds several entries; their conditions need not be identical. Equal values may be shown once. Inconclusive results and toxic doses are left out. No stated cut-off is given here; in the data, active means T/C of 150% or more; inactive means T/C below 125%.

Tested on: L1210 leukemia ip in BDF1 mice, survival T/C
Assay: NCI In Vivo Anticancer Drug Screen. Data for tumor model L1210 Leukemia (intraperitoneal) in B6D2F1 (BDF1) mice
Settings: endpoint: mean survival time, higher = longer survival
Summary of the method: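 Antitumor effect is assessed in tumor-bearing animals. Survival in the compound arm is compared with a vehicle-dosed control arm and expressed as their quotient.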

[1] = dose: 100.0 mg/kg/injection, schedule: Q01DX001 (ip), vehicle: carboxymethylcellulose (CMC)
[2] = dose: 200.0 mg/kg/injection, schedule: Q01DX001 (ip), vehicle: carboxymethylcellulose (CMC)
[3] = dose: 100.0 mg/kg/injection, schedule: Q04DX003 (ip), vehicle: Klucel (hydroxypropylcellulose) (HPC)
[4] = dose: 200.0 mg/kg/injection, schedule: Q04DX003 (ip), vehicle: Klucel (hydroxypropylcellulose) (HPC)
[5] = dose: 400.0 mg/kg/injection, schedule: Q04DX003 (ip), vehicle: Klucel (hydroxypropylcellulose) (HPC)
[6] = dose: 400.0 mg/kg/injection, schedule: Q01DX001 (ip), vehicle: carboxymethylcellulose (CMC)
[7] = dose: 100.0 mg/kg/injection, schedule: Q01DX001 (ip), vehicle: saline
[8] = dose: 100.0 mg/kg/injection, schedule: Q01DX009 (ip), vehicle: saline
[9] = dose: 100.0 mg/kg/injection, schedule: Q04DX003 (ip), vehicle: saline
[10] = dose: 200.0 mg/kg/injection, schedule: Q01DX001 (ip), vehicle: saline
[11] = dose: 100.0 mg/kg/injection, schedule: Q04DX003 (ip), vehicle: saline with Tween-80
[12] = dose: 200.0 mg/kg/injection, schedule: Q04DX003 (ip), vehicle: saline with Tween-80
[13] = dose: 400.0 mg/kg/injection, schedule: Q04DX003 (ip), vehicle: saline with Tween-80
[14] = dose: 100.0 mg/kg/injection, schedule: Q01DX009 (ip), vehicle: saline with Tween-80
[15] = dose: 200.0 mg/kg/injection, schedule: Q01DX009 (ip), vehicle: saline with Tween-80
[16] = dose: 400.0 mg/kg/injection, schedule: Q01DX009 (ip), vehicle: saline with Tween-80
[17] = dose: 100.0 mg/kg/injection, schedule: Q01DX001 (ip), vehicle: saline with Tween-80
[18] = dose: 200.0 mg/kg/injection, schedule: Q01DX001 (ip), vehicle: saline with Tween-80

Measured: T/C

CCCCCC(=O)N1CCCCC1C (centres undefined)
inactive: dose: 50.0 mg/kg/injection, schedule: Q01DX001 (ip), vehicle: carboxymethylcellulose (CMC) 97 % of control | dose: 50.0 mg/kg/injection, schedule: Q01DX009 (ip), vehicle: carboxymethylcellulose (CMC) 95 % of control and 97 % of control | dose: 50.0 mg/kg/injection, schedule: Q04DX002 (ip), vehicle: carboxymethylcellulose (CMC) 96 % of control and 98 % of control | dose: 50.0 mg/kg/injection, schedule: Q04DX003 (ip), vehicle: carboxymethylcellulose (CMC) 98 % of control | [1] 103 % of control | dose: 100.0 mg/kg/injection, schedule: Q01DX009 (ip), vehicle: carboxymethylcellulose (CMC) 96 % of control and 98 % of control | dose: 100.0 mg/kg/injection, schedule: Q04DX002 (ip), vehicle: carboxymethylcellulose (CMC) 97 % of control and 109 % of control and 92 % of control | dose: 100.0 mg/kg/injection, schedule: Q04DX003 (ip), vehicle: carboxymethylcellulose (CMC) 93 % of control | [2] 90 % of control | dose: 200.0 mg/kg/injection, schedule: Q04DX002 (ip), vehicle: carboxymethylcellulose (CMC) 100 % of control and 86 % of control | dose: 200.0 mg/kg/injection, schedule: Q04DX003 (ip), vehicle: carboxymethylcellulose (CMC) 95 % of control

NC(=O)Nc1ccc(C(=O)O)cc1
inactive: dose: 100.0 mg/kg/injection, schedule: Q01DX001 (ip), vehicle: Klucel (hydroxypropylcellulose) (HPC) 95 % of control | [3] 100 % of control | dose: 200.0 mg/kg/injection, schedule: Q01DX001 (ip), vehicle: Klucel (hydroxypropylcellulose) (HPC) 91 % of control | [4] 97 % of control | dose: 400.0 mg/kg/injection, schedule: Q01DX001 (ip), vehicle: Klucel (hydroxypropylcellulose) (HPC) 98 % of control | [5] 98 % of control

Nc1nc(N)c2c(n1)CNC2
inactive: [1] 112 % of control | [2] 112 % of control | [6] 104 % of control

Cc1cccc(C)c1N=C(N)NN
inactive: dose: 25.0 mg/kg/injection, schedule: Q01DX009 (ip), vehicle: saline 100 % of control | dose: 50.0 mg/kg/injection, schedule: Q01DX009 (ip), vehicle: saline 101 % of control | dose: 50.0 mg/kg/injection, schedule: Q04DX003 (ip), vehicle: saline 117 % of control | [7] 96 % of control | [8] 95 % of control | [9] 106 % of control | [10] 98 % of control

CC(=O)Nc1ccc(S(=O)(=O)NC(=O)NC(C)C)cc1
inactive: [11] 103 % of control | [12] 97 % of control | [13] 100 % of control

NC(=O)c1[nH]cnc1/N=N/N(CCO)CCO
inactive: dose: 50.0 mg/kg/injection, schedule: Q01DX001 (ip), vehicle: water 102 % of control | dose: 50.0 mg/kg/injection, schedule: Q04DX003 (ip), vehicle: water 100 % of control | dose: 100.0 mg/kg/injection, schedule: Q01DX001 (ip), vehicle: water 97 % of control | [14] 105 % of control | [11] 101 % of control | dose: 100.0 mg/kg/injection, schedule: Q04DX003 (ip), vehicle: water 101 % of control | dose: 200.0 mg/kg/injection, schedule: Q01DX001 (ip), vehicle: water 103 % of control | [15] 105 % of control | [12] 101 % of control | dose: 200.0 mg/kg/injection, schedule: Q04DX003 (ip), vehicle: water 100 % of control | dose: 400.0 mg/kg/injection, schedule: Q01DX001 (ip), vehicle: water 101 % of control | [16] 100 % of control | [13] 98 % of control | dose: 400.0 mg/kg/injection, schedule: Q04DX003 (ip), vehicle: water 101 % of control

CCO/C=N\c1c(C#N)c(CC#N)nn1-c1ccccc1
inactive: dose: 50.0 mg/kg/injection, schedule: Q01DX009 (ip), vehicle: Klucel (hydroxypropylcellulose) (HPC) 100 % of control | dose: 100.0 mg/kg/injection, schedule: Q01DX009 (ip), vehicle: Klucel (hydroxypropylcellulose) (HPC) 91 % of control | dose: 200.0 mg/kg/injection, schedule: Q01DX009 (ip), vehicle: Klucel (hydroxypropylcellulose) (HPC) 100 % of control

Cc1nc(C(=O)NN)co1
inactive: dose: 5.0 mg/kg/injection, schedule: Q01DX001 (ip), vehicle: saline 106 % of control | dose: 10.0 mg/kg/injection, schedule: Q01DX001 (ip), vehicle: saline 110 % of control | dose: 20.0 mg/kg/injection, schedule: Q01DX001 (ip), vehicle: saline 101 % of control | dose: 40.0 mg/kg/injection, schedule: Q01DX001 (ip), vehicle: saline 101 % of control | dose: 80.0 mg/kg/injection, schedule: Q01DX001 (ip), vehicle: saline 104 % of control | [7] 98 % of control

CSc1ccc(NC(=O)Oc2cc3ccccc3cc2C(=O)Nc2ccccc2)cc1
inactive: dose: 50.0 mg/kg/injection, schedule: Q01DX009 (ip), vehicle: saline with Tween-80 97 % of control and 99 % of control | [17] 95 % of control | [14] 96 % of control and 86 % of control | dose: 100.0 mg/kg/injection, schedule: Q04DX002 (ip), vehicle: saline with Tween-80 100 % of control and 92 % of control | [11] 87 % of control | [18] 87 % of control | [15] 96 % of control and 90 % of control | dose: 200.0 mg/kg/injection, schedule: Q04DX002 (ip), vehicle: saline with Tween-80 98 % of control and 91 % of control | [12] 94 % of control | dose: 400.0 mg/kg/injection, schedule: Q01DX001 (ip), vehicle: saline with Tween-80 88 % of control | dose: 400.0 mg/kg/injection, schedule: Q04DX002 (ip), vehicle: saline with Tween-80 95 % of control | [13] 91 % of control

O=C(Nc1cccc(C(F)(F)F)c1)Oc1ccc(Cl)cc1Cc1ccccc1
inactive: [14] 98 % of control | [15] 93 % of control | [16] 92 % of control

C=CCN1C(=O)C(CCCCCCCCCCCC)C(=O)NC1=S (centres undefined)
inactive: dose: 75.0 mg/kg/injection, schedule: Q01DX001 (ip), vehicle: other 101 % of control | dose: 150.0 mg/kg/injection, schedule: Q01DX001 (ip), vehicle: other 95 % of control | dose: 300.0 mg/kg/injection, schedule: Q01DX001 (ip), vehicle: other 90 % of control

Cc1cc2oc(=O)c3c(c2c(O)c1CN1CCCCC1)CCCC3
inactive: [1] 98 % of control | [2] 98 % of control | [6] 96 % of control

CCOC(=O)C(C#N)=C([SH2+])[SH2+].CCOC(=O)C(C#N)=C([SH2+])[SH2+].[Cu+2].c1ccc(C[P+](c2ccccc2)(c2ccccc2)c2ccccc2)cc1
inactive: [7] 92 % of control | [9] 102 % of control | [10] 87 % of control | dose: 200.0 mg/kg/injection, schedule: Q04DX003 (ip), vehicle: saline 97 % of control | dose: 400.0 mg/kg/injection, schedule: Q01DX001 (ip), vehicle: saline 89 % of control | dose: 400.0 mg/kg/injection, schedule: Q04DX003 (ip), vehicle: saline 91 % of control

[I][Pb]([c]1ccccc1)([c]1ccccc1)[c]1ccccc1
inactive: dose: 12.5 mg/kg/injection, schedule: Q04DX003 (ip), vehicle: Klucel (hydroxypropylcellulose) (HPC) 98 % of control | dose: 25.0 mg/kg/injection, schedule: Q04DX003 (ip), vehicle: Klucel (hydroxypropylcellulose) (HPC) 94 % of control

CC(=O)Nc1ccccc1N
inactive: [8] 117 % of control | dose: 100.0 mg/kg/injection, schedule: Q04DX002 (ip), vehicle: Klucel (hydroxypropylcellulose) (HPC) 92 % of control | dose: 200.0 mg/kg/injection, schedule: Q01DX009 (ip), vehicle: saline 113 % of control | dose: 200.0 mg/kg/injection, schedule: Q04DX002 (ip), vehicle: Klucel (hydroxypropylcellulose) (HPC) 113 % of control | dose: 265.0 mg/kg/injection, schedule: Q01DX009 (ip), vehicle: saline 114 % of control | dose: 400.0 mg/kg/injection, schedule: Q04DX002 (ip), vehicle: Klucel (hydroxypropylcellulose) (HPC) 103 % of control

CCOC(=O)C1C(=O)C(C(=O)Nc2ccccc2)C(=O)C(C(=O)OCC)C1c1ccc(OC(C)=O)cc1 (centres undefined)
inactive: dose: 50.0 mg/kg/injection, schedule: Q01DX001 (ip), vehicle: saline with Tween-80 94 % of control | [17] 100 % of control | [18] 96 % of control

Oc1ccc2ccccc2c1C=Nc1ccc(Br)cc1
inactive: [3] 91 % of control | [4] 90 % of control | [5] 91 % of control
